The test system of data set [1] is Rattus norvegicus. The data set is described as follows: Hypotensive activity in normotensive Wistar rat assessed as systolic blood pressure at 5 mg/kg, iv measured after 20 mins (reference value: 119.2 to 148.6 mmHg). The format is functional.
Data set [2] has as its system Rattus norvegicus. As to the kind of experiment: Cardiotoxicity in Wistar rat assessed as effect on heart rate at 5 mg/kg, iv measured after 5 mins (reference value: 323 to 374.5 bpm). The note with it: in vivo. The format is toxicity, organism-based.
Data set [3] concerns the target Adrenergic receptor alpha-2 (Rattus norvegicus) (UniProt P22086+P19328+P22909). The data set is described as follows: Displacement of [3H]-clonidine from adrenergic alpha2 receptor in Wistar rat cortex at 10^-5 M incubated for 25 mins by microbeta liquid scintillation counting analysis.
The target in data set [4] is T1, Adrenergic receptor alpha-1 (Rattus norvegicus, UniProt P15823+P23944+P43140).
T1 sequence (P15823 whole entry): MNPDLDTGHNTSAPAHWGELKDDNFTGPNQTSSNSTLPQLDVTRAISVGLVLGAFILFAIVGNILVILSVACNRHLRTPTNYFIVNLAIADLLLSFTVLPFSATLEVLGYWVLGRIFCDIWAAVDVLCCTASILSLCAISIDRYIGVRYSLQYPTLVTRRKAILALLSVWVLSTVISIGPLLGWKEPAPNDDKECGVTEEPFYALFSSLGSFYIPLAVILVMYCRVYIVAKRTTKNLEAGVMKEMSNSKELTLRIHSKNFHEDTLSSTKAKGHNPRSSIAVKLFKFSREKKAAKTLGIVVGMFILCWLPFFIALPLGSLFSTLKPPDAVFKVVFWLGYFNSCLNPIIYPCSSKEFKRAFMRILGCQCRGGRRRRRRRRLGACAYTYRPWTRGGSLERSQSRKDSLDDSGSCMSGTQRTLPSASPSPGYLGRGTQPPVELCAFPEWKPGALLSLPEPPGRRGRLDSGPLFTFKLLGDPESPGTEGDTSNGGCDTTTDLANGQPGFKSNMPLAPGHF
T1 sequence (P23944 whole entry): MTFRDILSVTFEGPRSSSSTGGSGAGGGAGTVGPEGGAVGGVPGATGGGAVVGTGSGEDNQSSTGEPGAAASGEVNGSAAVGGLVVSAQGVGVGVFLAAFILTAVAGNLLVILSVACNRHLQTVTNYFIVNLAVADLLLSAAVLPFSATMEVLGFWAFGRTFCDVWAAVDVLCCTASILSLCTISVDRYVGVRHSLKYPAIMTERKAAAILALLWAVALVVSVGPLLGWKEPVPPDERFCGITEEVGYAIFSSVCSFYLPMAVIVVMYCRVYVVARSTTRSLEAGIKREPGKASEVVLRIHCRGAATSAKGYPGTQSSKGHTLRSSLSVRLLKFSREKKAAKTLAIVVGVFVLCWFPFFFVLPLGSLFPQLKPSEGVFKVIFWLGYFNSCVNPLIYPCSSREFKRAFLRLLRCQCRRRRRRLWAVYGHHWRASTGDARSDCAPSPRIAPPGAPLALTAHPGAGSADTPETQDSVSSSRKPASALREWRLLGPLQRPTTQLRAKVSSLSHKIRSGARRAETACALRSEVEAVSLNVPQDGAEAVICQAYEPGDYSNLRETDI
T1 sequence (P43140 whole entry): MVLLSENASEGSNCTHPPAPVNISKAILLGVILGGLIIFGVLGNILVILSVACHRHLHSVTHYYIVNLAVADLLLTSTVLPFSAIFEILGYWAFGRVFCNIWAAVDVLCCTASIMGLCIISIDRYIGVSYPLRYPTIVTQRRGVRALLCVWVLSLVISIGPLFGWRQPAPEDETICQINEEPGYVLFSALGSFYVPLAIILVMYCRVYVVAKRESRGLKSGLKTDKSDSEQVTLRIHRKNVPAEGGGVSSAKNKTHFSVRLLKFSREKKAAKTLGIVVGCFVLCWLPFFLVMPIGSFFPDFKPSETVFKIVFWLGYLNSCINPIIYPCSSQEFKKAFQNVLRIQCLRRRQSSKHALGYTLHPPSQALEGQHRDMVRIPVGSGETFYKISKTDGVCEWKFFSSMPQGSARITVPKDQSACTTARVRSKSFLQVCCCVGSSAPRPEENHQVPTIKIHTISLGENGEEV
The data set is described as follows: Displacement of [3H][…]prazosin from adrenergic alpha1 receptor in Wistar rat cortex incubated for 30 mins by microbeta liquid scintillation counting analysis.

In data set [5] the test system is Rattus norvegicus. As to the kind of experiment: Hypotensive activity in normotensive Wistar rat assessed as diastolic blood pressure at 5 mg/kg, iv measured after 30 mins (reference value: 86.5 to 119.4 mmHg). The data set is classed as functional.
Data set [6] concerns Rattus norvegicus. The data set is described as follows: Hypotensive activity in normotensive Wistar rat assessed as systolic blood pressure at 5 mg/kg, iv measured after 60 mins (reference value: 119.2 to 148.6 mmHg). The data set is classed as functional.
Data set [7] relates to Rattus norvegicus. The data set is described as follows: Cardiotoxicity in Wistar rat assessed as effect on QT interval time at 5 mg/kg, iv measured after 5 mins (reference value: 57.7 to 61 ms). The data set is classed as toxicity, organism-based. The note with it: in vivo.
Data set [8] deals with Rattus norvegicus. As to the kind of experiment: Cardiotoxicity in Wistar rat assessed as effect on heart rate at 5 mg/kg, iv measured after 1 min (reference value: 323 to 374.5 bpm). The data set is classed as toxicity, organism-based. The note with it: in vivo.
Data set [9] has as its system Rattus norvegicus. The data set is described as follows: Hypotensive activity in normotensive Wistar rat assessed as diastolic blood pressure at 5 mg/kg, iv measured after 10 mins (reference value: 86.5 to 119.4 mmHg). The data set is classed as functional.
Data set [10] relates to Rattus norvegicus. As to the kind of experiment: Hypotensive activity in normotensive Wistar rat assessed as systolic blood pressure at 5 mg/kg, iv measured after 30 mins (reference value: 119.2 to 148.6 mmHg). The format is functional.
Data set [11] addresses Beta-1 adrenergic receptor (Rattus norvegicus, UniProt P18090). The data set is described as follows: Displacement of [3H]-CGP-12177 from adrenergic beta1 receptor in Wistar rat cortex incubated for 60 mins by microbeta liquid scintillation counting analysis.
Data set [12] concerns Rattus norvegicus. The data set is described as follows: Cardiotoxicity in Wistar rat assessed as effect on QT interval time at 5 mg/kg, iv measured after 15 mins (reference value: 57.7 to 61 ms). The data set is classed as toxicity, organism-based. The settings on record: in vivo, 0.25 h.
Data set [13] deals with Rattus norvegicus. As to the kind of experiment: Hypotensive activity in normotensive Wistar rat assessed as diastolic blood pressure at 5 mg/kg, iv measured after 5 mins (reference value: 86.5 to 119.4 mmHg). The data set is classed as functional.
The subject of a further data set is Blood. As to the kind of experiment: Anti-aggregative activity in Wistar rat whole blood assessed as inhibition of collagen-induced aggregation preincubated for 3 mins followed by collagen induction measured for 6 mins. The data set is classed as functional, tissue-based.
Data set [14] deals with Rattus norvegicus. As to the kind of experiment: Cardiotoxicity in Wistar rat assessed as effect on PQ interval time at 5 mg/kg, iv measured after 5 mins (reference value: 52 to 57 ms). The format is toxicity, organism-based. The note with it: in vivo.
The test system of data set [15] is Rattus norvegicus. As to the kind of experiment: Cardiotoxicity in Wistar rat assessed as effect on QTC interval time at 5 mg/kg, iv measured after 5 mins (reference value: 136.7 to 146.2 ms). The settings on record: in vivo. The data set is classed as toxicity, organism-based.
Data set [16] relates to Rattus norvegicus. As to the kind of experiment: Hypotensive activity in normotensive Wistar rat assessed as systolic blood pressure at 5 mg/kg, iv measured after 5 mins (reference value: 119.2 to 148.6 mmHg). The format is functional.
In data set [17] the test system is Rattus norvegicus. As to the kind of experiment: Cardiotoxicity in Wistar rat assessed as effect on QTC interval time at 5 mg/kg, iv measured after 15 mins (reference value: 136.7 to 146.2 ms). The format is toxicity, organism-based. The settings on record: in vivo, 0.25 h.
Data set [18] relates to Rattus norvegicus. The data set is described as follows: Cardiotoxicity in Wistar rat assessed as effect on QRS interval time at 5 mg/kg, iv measured after 1 min (reference value: 16.7 to 20.7 ms). The data set is classed as toxicity, organism-based. The note with it: in vivo.

Activity calls are given as the source filed them. The rule behind the calls is not given here.

Beta-1 adrenergic receptor, sequence (P18090 whole entry): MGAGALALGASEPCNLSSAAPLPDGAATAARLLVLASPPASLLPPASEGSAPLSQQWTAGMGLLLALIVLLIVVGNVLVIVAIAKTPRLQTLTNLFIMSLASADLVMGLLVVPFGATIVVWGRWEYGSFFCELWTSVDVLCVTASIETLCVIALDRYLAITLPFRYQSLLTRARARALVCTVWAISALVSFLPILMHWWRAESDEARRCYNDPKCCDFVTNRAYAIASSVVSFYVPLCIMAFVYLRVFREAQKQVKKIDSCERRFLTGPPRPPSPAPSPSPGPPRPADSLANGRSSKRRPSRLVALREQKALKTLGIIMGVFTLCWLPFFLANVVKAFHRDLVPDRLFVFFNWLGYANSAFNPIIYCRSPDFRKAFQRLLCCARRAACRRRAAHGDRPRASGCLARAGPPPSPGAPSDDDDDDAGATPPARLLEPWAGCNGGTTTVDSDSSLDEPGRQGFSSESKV

The term IC50 denotes the concentration at which inhibition is half-maximal. A word on the Ki: it is a measure of affinity in units of concentration, obtained from inhibition or displacement. As to `Cl.O=c1c2ccccc2oc2c(OCC(O)CN3CCN(c4ccccn4)CC3)cccc12` (racemic), the Activity in the data set on Rattus norvegicus [1] is 129.8 mmHg; in the data set with Rattus norvegicus [2] it was 356 bpm; in the data set with Rattus norvegicus [5], 99.8 mmHg; with Rattus norvegicus [6], 126.4 mmHg; with Rattus norvegicus [8] it was 368.2 bpm; in the data set on Rattus norvegicus [9], 106 mmHg. Besides, the Activity turned out to be 126.6 mmHg with Rattus norvegicus [10], 110.8 mmHg in the data set with Rattus norvegicus [13] and 136.8 mmHg in the data set with Rattus norvegicus [16]. In addition, the result in [3] was inactive. The IC50 in [4] was 171 nM; in data set [11], 1420 nM; in the data set on Blood it was 64100 nM. The Time in the data set on Rattus norvegicus [7] amounted to 59.5 ms; in the data set on Rattus norvegicus [12], 60.2 ms; in the data set on Rattus norvegicus [14] it was 58 ms; in the data set on Rattus norvegicus [15], 144.8 ms; in the data set on Rattus norvegicus [17], 144 ms; with Rattus norvegicus [18] it was 18.5 ms. In data set [11], this molecule came in with an inhibition constant Ki of 213 nM. Besides, the inhibition result in the data set on Blood was “Dose-dependent effect”.
